Source: patent US10576102B2, “KOC1-derived peptide and vaccine including same” (ONCOTHERAPY SCIENCE, INC., priority 2014, dated 2020)

How the values were obtained:
Format in all cases: cell-based, human
peptide-pulsed C1R-A33 = assay: IFN-gamma ELISA of CTL lines and CTL clones (HLA-A*3303)
Procedure: (§1) CTLs were propagated in culture using methods similar to those disclosed by Riddell et al. (Walter E A et al., N Engl J Med 1995, 333(16): 1038-44; Riddell S R et al., Nat Med 1996, 2(2): 216-23). The CTLs were co-cultured in a total of 25 ml AIM-V medium containing 5% AS (AIM-V/5% AS) and 40 ng/ml anti-CD3 antibody with two types of Mitomycin C-treated human B lymphoblastoid cell lines at 5×10^6 cells/flask. One day after beginning of the culturing, 120 IU/ml IL-2 was added to the culture. On days 5, 8 and 11, a fresh AIM-V/5% AS medium containing 30 IU/ml IL-2 was added to the culture (Tanaka H et al., Br J Cancer 2001, 84(1): 94-9; Umano Y et al., Br J Cancer 2001, 84(8): 1052-7; Uchida N et al., Clin Cancer Res 2004, 10(24): 8577-86; Suda T et al., Cancer Sci 2006, 97(5): 411-9; Watanabe T et al., Cancer Sci 2005, 96(8): 498-506).
(§2) Dilution of CTLs was carried out to make 0.3, 1 and 3 cells/well in 96 round-bottomed microtiter plates (Nalge Nunc International). The CTLs were co-cultured with two types of Mitomycin C-treated human B lymphoblastoid cell lines at 1×10^4 cells/well in a total of 150 micro-1/well AIM-V/5% AS medium with 30 ng/ml anti-CD3 antibody and 125 IU/ml IL-2. Ten days later, IL-2 was added to the medium at 50 micro-1/well to reach a final concentration of 125 IU/ml. On day 14, the CTL activity was tested, and the CTL clones were propagated using the same method as described above (Uchida N et al., Clin Cancer Res 2004, 10(24): 8577-86; Suda T et al., Cancer Sci 2006, 97(5): 411-9; Watanabe T et al., Cancer Sci 2005, 96(8): 498-506).
Specifically, peptide-pulsed C1R-A33 (1×10^4 cells/well) was prepared as the stimulator cell. The induced CTLs, i.e., CTL lines and CTL clones, were used as the responder cell. The IFN-gamma ELISPOT assay and IFN-gamma ELISA were performed according to the manufacturer's manual.

peptide-pulsed C1R-A11 [1] = assay: In vitro CTL induction, IFN-gamma ELISPOT assay (HLA-A*1101); settings: CTLs induced with peptide-pulsed DCs from HLA-A*1101-positive volunteers; day 21; vs peptide-pulsed C1R-A11, compared with unpulsed control
Procedure, shortened: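 CD8+ T cells from HLA-A*1101-positive donors were stimulated three times (days 0, 7, 14) with irradiated autologous monocyte-derived DCs pulsed with 20 μg/ml peptide, in the presence of IL-7 and IL-2. On day 21, […] were tested by IFN-gamma ELISPOT against peptide-pulsed C1R-A11 stimulators at 1×10^4 cells/well.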

peptide-pulsed C1R-A11 [2] = assay: IFN-gamma ELISA of CTL lines and CTL clones (HLA-A*1101); settings: CTL lines; target cells pulsed with the peptide vs not pulsed; C1R-A11
Procedure: as §1, §2
Specifically, peptide-pulsed C1R-A11 (1×10^4 cells/well) was prepared as the stimulator cell. The induced CTLs, i.e., CTL lines and CTL clones, were used as the responder cell. The IFN-gamma ELISPOT assay and IFN-gamma ELISA were performed according to the manufacturer's manual.

Sequence	IFN-gamma production of CTL clones, ELISA (peptide-pulsed C1R-A33; CTL clones by limiting dilution, peptide-pulsed C1R-A33, listed as KOC1-A33-10-281)	IFN-gamma production of CTL lines, ELISA (peptide-pulsed C1R-A33; CTL lines, target cells pulsed with the peptide vs not pulsed, C1R-A33)	peptide-specific CTL activity (IFN-gamma production), ELISPOT (peptide-pulsed C1R-A11 [1])	IFN-gamma production of CTL lines, ELISA (peptide-pulsed C1R-A11 [2])
ILAHNNFVGR (a peptide derived from KOC1) [SEQ ID NO: 52]	Potent IFN-gamma production	potent IFN-gamma production		
TQFVGAIIGK (a peptide derived from KOC1) [SEQ ID NO: 30]			potent IFN-gamma production	potent IFN-gamma production
